Target: T1, recombinant human CCR5 receptor (Homo sapiens, UniProt P51681)
T1 construct: expressed in transfected cells; host or cells: Chinese hamster ovary (CHO) cells; membranes
Test: Radioligand binding assay for inhibition of the binding of MIP-1α
Settings: displacement of 0.1 nM iodinated MIP-1α; membranes of Chinese hamster ovary cells expressing CCR5
Protocol: Biological Assay for the Ability of Compounds to Inhibit the Binding of MIP-1α This ability is assessed using an in vitro radioligand binding assay. Membranes are prepared from Chinese hamster ovary cells which express the recombinant human CCR5 receptor. These membranes are incubated with 0.1 nM iodinated MIP-1α, scintillation proximity beads and various concentrations of the compounds of the invention in 96-well plates. The amount of iodinated MIP-1α bound to the receptor is then determined by scintillation counting.

T1 sequence (P51681 whole entry): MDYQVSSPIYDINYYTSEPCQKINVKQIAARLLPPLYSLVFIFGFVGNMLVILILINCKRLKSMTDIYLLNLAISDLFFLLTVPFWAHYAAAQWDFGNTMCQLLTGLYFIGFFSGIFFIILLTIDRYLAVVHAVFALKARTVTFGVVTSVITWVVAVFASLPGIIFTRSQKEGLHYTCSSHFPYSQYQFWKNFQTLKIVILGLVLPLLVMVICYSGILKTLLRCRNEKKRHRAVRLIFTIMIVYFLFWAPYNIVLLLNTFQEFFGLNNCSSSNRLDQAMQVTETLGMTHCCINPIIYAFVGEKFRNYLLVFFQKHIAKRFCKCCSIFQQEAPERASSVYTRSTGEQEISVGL

Compound	IC50 [µM]
O=C(Nc1ccccc1)N1CCN(CC2CCCN(C3CC3)C2)CC1 (stereo in doubt) [Example 183, N-Phenyl-4-{[(3R)-1-(2-cyclopropyl)piperidin-3-yl]methyl}piperazine-1-carboxamide]	< 10
O=C(Nc1ccc(Cl)cc1)N1CCN(CC2CCCN(C3CC3)C2)CC1 (stereo in doubt) [Example 185, N-(4-chlorophenyl)-4-{[(3R)-1-(2-cyclopropyl)piperidin-3-yl]methyl}piperazine-1-carboxamide]	< 10
CCC(C)N1CCOC(CN2CCN(C(=O)Nc3ccc(F)c(Cl)c3)CC2)C1 (stereo in doubt) [Example 236, N-(3-chloro-4-fluorophenyl)-4-({(2R)-4-[(1R)-1-methylpropyl]morpholin-2-yl}methyl)piperazine-1-carboxamide]	< 10
CCCC(C)N1CCOC(CN2CCN(C(=O)Nc3ccc(F)c(Cl)c3)CC2)C1 (stereo in doubt) [Example 237, N-(3-chloro-4-fluorophenyl)-4-({(2R)-4-[(1S)-1-methylbutyl]morpholin-2-yl}methyl)piperazine-1-carboxamide]	< 10
CC(Cc1ccccc1)N1CCCC(CN2CCN(C(=O)Nc3ccccc3)CC2)C1 (stereo in doubt) [Example 246, 4-[[(3R)-1-(1-methyl-2-phenyl-ethyl)-3-piperidyl]methyl]-N-phenyl-piperazine-1-carboxamide]	< 10
CC(C)CC(C)N1CCOC(CN2CCN(C(=O)Nc3ccc(F)c(Cl)c3)CC2)C1 (stereo in doubt) [Example 259, N-(3-chloro-4-fluorophenyl)-4-({(2R)-4-[(1R)-1,3-dimethylbutyl]morpholin-2-yl}methyl)piperazine-1-carboxamide]	< 10
CN1CCCC(CN2CCN(C(=O)Nc3ccccc3)CC2)C1 (centres unmarked) [Example 1, 4-[(1-methylpiperidin-3-yl)methyl]-N-phenylpiperazine-1-carboxamide]	< 10
CN1CCCC(CN2CCN(C(=O)Nc3cc(Cl)cc(Cl)c3)CC2)C1 (centres unmarked) [Example 41, N-(3,5-dichlorophenyl)-4-[(1-methylpiperidin-3-yl)methyl]piperazine-1-carboxamide]	< 10
CCN1CCC[C@@H](C(=O)N2CCN(C(=O)Nc3ccc(Cl)c(Cl)c3)CC2)C1 [Example 90, N-(3,4-dichlorophenyl)-4-{[(3R)-1-ethylpiperidin-3-yl]carbonyl}piperazine-1-carboxamide]	< 10
O=C(Nc1ccc(C(F)(F)F)c(Cl)c1)N1CCN(C[C@@H]2CCCN(C3CC3)C2)CC1 [Example 106, N-[3-chloro-4-(trifluoromethyl)phenyl]-4-{[(3S)-1-cyclopropylpiperidin-3-yl]methyl}piperazine-1-carboxamide]	< 10
O=C(Nc1ccc(F)c(Cl)c1)N1CCN(C[C@@H]2CCCN(C3CC3)C2)CC1 [Example 107, N-(3-chloro-4-fluorophenyl)-4-{[(3S)-1-cyclopropylpiperidin-3-yl]methyl}piperazine-1-carboxamide]	< 10
O=C(Nc1ccc(Br)cc1)N1CCN(C[C@@H]2CCCN(C3CC3)C2)CC1 [Example 108, N-(4-bromophenyl)-4-{[(3S)-1-cyclopropylpiperidin-3-yl]methyl}piperazine-1-carboxamide]	< 10
O=C(Nc1cccc(C(F)(F)F)c1)N1CCN(C[C@@H]2CCCN(C3CC3)C2)CC1 [Example 109, 4-{[(3S)-1-cyclopropylpiperidin-3-yl]methyl}-N-[3-(trifluoromethyl)phenyl]piperazine-1-carboxamide]	< 10
O=C(Nc1ccc(C(F)(F)F)cc1)N1CCN(C[C@@H]2CCCN(C3CC3)C2)CC1 [Example 111, 4-{[(3S)-1-cyclopropylpiperidin-3-yl]methyl}-N-[4-(trifluoromethyl)phenyl]piperazine-1-carboxamide]	< 10
CC(C)(C)c1cc(NC(=O)N2CCN(C[C@@H]3CCCN(C4CC4)C3)CC2)no1 [Example 112, N-(5-tert-butylisoxazol-3-yl)-4-{[(3S)-1-cyclopropylpiperidin-3-yl]methyl}piperazine-1-carboxamide]	< 10
O=C(Nc1ccc(Cl)c(Cl)c1)N1CCN(C[C@H]2CN(C3CCC3)CCO2)CC1 [Example 115, 4-{[(2S)-4-cyclobutylmorpholin-2-yl]methyl}-N-(3,4-dichlorophenyl)piperazine-1-carboxamide]	< 10
O=C(Nc1ccc(Cl)c(Cl)c1)N1CCN(C[C@H]2CN(C3CCCC3)CCO2)CC1 [Example 118, 4-{[(2S)-4-cyclopentylmorpholin-2-yl]methyl}-N-(3,4-dichlorophenyl)piperazine-1-carboxamide]	< 10
CC(C)N1CCO[C@@H](CN2CCN(C(=O)Nc3ccc(Cl)c(Cl)c3)CC2)C1 [Example 119, N-(3,4-dichlorophenyl)-4-{[(2S)-4-isopropylmorpholin-2-yl]methyl}piperazine-1-carboxamide]	< 10
CC(=O)N1CCC(N2CCO[C@@H](CN3CCN(C(=O)Nc4ccc(Cl)c(Cl)c4)CC3)C2)CC1 [Example 120, 4-{[(2S)-4-(1-acetylpiperidin-4-yl)morpholin-2-yl]methyl}-N-(3,4-dichlorophenyl)piperazine-1-carboxamide]	< 10
O=C(Nc1ccc(Cl)c(Cl)c1)N1CCN(C[C@H]2CN(C3CCOCC3)CCO2)CC1 [Example 121, N-(3,4-dichlorophenyl)-4-{[(2S)-4-(tetrahydro-2H-pyran-4-yl)morpholin-2-yl]methyl}piperazine-1-carboxamide]	< 10
O=C(Nc1ccc(Cl)c(Cl)c1)N1CCN(C[C@H]2CN(C3CCC(O)CC3)CCO2)CC1 (stereo partly drawn) [Example 122, N-(3,4-dichlorophenyl)-4-{[(2S)-4-(4-hydroxycyclohexyl)morpholin-2-yl]methyl}piperazine-1-carboxamide]	< 10

Now from value to compound:

IC50 [µM]	Compound
< 10	O=C(Nc1ccc(Cl)c(Cl)c1)N1CCN(CC2CCCN(C3CC3)C2)CC1 (stereo in doubt) [Example 139, 1-{[(3R)-1-Cyclopropylpiperidin-3-yl]methyl}-N-(3,4-dichlorophenyl)piperazine-4-carboxamide]
< 10	O=C(Nc1ccc(Cl)c(Cl)c1)N1CCN(CC2CCCN(CC(O)c3cccc[n+]3[O-])C2)CC1 (stereo in doubt) [Example 267, N-(3,4-dichlorophenyl)-4-({(3R)-1-[2-hydroxy-2-(1-oxidopyridin-2-yl)ethyl]piperidin-3-yl}methyl)piperazine-1-carboxamide]
< 10	O=C(Nc1ccc(Cl)c(Cl)c1)N1CCN(C[C@@H]2CCCN(CC3CC3)C2)CC1 [Example 19, 4-{[(3R)-1-(cyclopropylmethyl)-piperidin-3-yl]methyl}-N-(3,4-dichlorophenyl)-piperazine-1-carboxamide]
< 10	Cc1ccc(NC(=O)N2CCN(CC3CCCN(C)C3)CC2)cc1Cl (centres unmarked) [Example 26, N-(3-chloro-4-methylphenyl)-4-[(1-methylpiperidin-3-yl)methyl]piperazine-1-carboxamide]
< 10	O=C(Nc1ccc(Cl)c(Cl)c1)N1CCN(C[C@@H]2CCCN(Cc3cc[nH]n3)C2)CC1 [Example 34, N-(3,4-dichlorophenyl)-4-{[(3S)-1-(1H-pyrazol-3-ylmethyl)-piperidin-3-yl]methyl}piperazine-1-carboxamide]
< 10	O=C1CN(C(=O)Nc2ccc(Cl)c(Cl)c2)CCN1CC1CCCN(Cc2ccccc2)C1 (centres unmarked) [Example 42, 4-[(1-benzylpiperidin-3-yl)methyl]-N-(3,4-dichlorophenyl)-3-oxopiperazine-1-carboxamide]
< 10	Cc1cccnc1CN1CCC[C@@H](CN2CCN(C(=O)Nc3ccc(Cl)c(Cl)c3)CC2)C1 [Example 44, N-(3,4-dichlorophenyl)-4-({(3S)-1-[(3-methylpyridin-2-yl)methyl]piperidin-3-yl}methyl)piperazine-1-carboxamide]
< 10	COc1ccc(CN2CCC[C@@H](CN3CCN(C(=O)Nc4ccc(Cl)c(Cl)c4)CC3)C2)cc1 [Example 47, N-(3,4-dichlorophenyl)-4-{[(3R)-1-(4-methoxybenzyl)piperidin-3-yl]methyl}piperazine-1-carboxamide]
< 10	N#C/N=C(\Nc1ccc(Cl)c(Cl)c1)N1CCN(C[C@@H]2CCCN(CCc3ccccc3)C2)CC1 [Example 79, N-cyano-N-(3,4-dichlorophenyl)-4-{[(3R)-1-(2-phenylethyl)piperidin-3-yl]methyl}piperazine-1-carboximidamide]
< 10	CC(C)N1CCC[C@@H](CN2CCN(C(=O)Nc3ccc(Cl)c(Cl)c3)CC2)C1 [Example 84, N-(3,4-dichlorophenyl)-4-{[(3S)-1-isopropylpiperidin-3-yl]methyl}piperazine-1-carboxamide]
< 10	O=C(Nc1ccc(Cl)c(Cl)c1)N1CCN(C(=O)[C@@H]2CCCN(CCc3ccccc3)C2)CC1 [Example 89, N-(3,4-dichlorophenyl)-4-{[(3R)-1-(2-phenylethyl)piperidin-3-yl]carbonyl}piperazine-1-carboxamide]
< 10	CCN1CCC[C@@H](CN2CCN(C(=O)Nc3ccc(Cl)c(Cl)c3)CC2=O)C1 [Example 91, N-(3,4-dichlorophenyl)-4-{[(3R)-1-ethylpiperidin-3-yl]methyl}-3-oxopiperazine-1-carboxamide]
< 10	Cc1ccc(NC(=O)N2CCN(C[C@@H]3CCCN(C4CC4)C3)CC2)cc1Cl [Example 110, N-(3-chloro-4-methylphenyl)-4-{[(3S)-1-cyclopropylpiperidin-3-yl]methyl}piperazine-1-carboxamide]
< 10	COCCN1CCC[C@@H](CN2CCN(C(=O)Nc3ccc(Cl)c(Cl)c3)CC2)C1 [Example 113, N-(3,4-dichlorophenyl)-4-{[(3S)-1-(2-methoxyethyl)piperidin-3-yl]methyl}piperazine-1-carboxamide]
